# Tested on: Caco-2
# Assay: Effect in human Caco-2 cells assessed as IL-1-beta-induced IL8 production relative to control at 50 uM after 24 hrs by ELISA
# Details: Caco-2, 24 h
row,SMILES,"level, % of control at 50 µM"
1,Oc1ccc(-c2cn3c(O)c(-c4ccccc4)nc3cn2)cc1,65%
2,CON(C)C(=O)C(C)c1ccc(CC(C)C)cc1 (configuration not stated),55%
3,CC(C)Cc1ccc(C(C)C(=O)/C=N/O)cc1 (configuration not stated),290%
4,CC(C)Cc1ccc(C(C)C(=O)CCl)cc1 (configuration not stated),70%
5,N=c1c(-c2ccccc2)nc2c[nH]c(-c3ccc(O)cc3)cn1-2,56%
6,CC(C)Cc1ccc(C(C)C(=O)n2nnc3ccccc32)cc1 (configuration not stated),76%

# Tested on: Caco-2
# Assay: Effect in human Caco-2 cells assessed as IL-1-beta-induced IL8 production relative to control at 5 uM after 24 hrs by ELISA
# Details: Caco-2, 24 h
row,SMILES,"level, % of control at 5 µM"
1,N=c1c(-c2ccccc2)nc2c[nH]c(-c3ccc(O)cc3)cn1-2,75%
